Experimental data from PubChem BioAssay AID463204 (Broad Institute, 2010).
Activity calls are given as the source filed them.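 How the source made its calls: active means AC50 no more than ten times the top concentration tested, that is within one log above it; inconclusive means flat curve fit with activity between 30% and 70%, or invalid poor fit; inactive means AC50 beyond ten times the top tested dose.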

Tested on: S. cerevisiae Mot1-301 ts growth rescue, BacTiter-Glo ATP luminescence
Test: growth rescue of Mot1-301 ts yeast, confirmation, SUMOylation pathway inhibitor project, whole organism, S. cerevisiae, Mot1-301 ts mutant, luminescence, dose retest (AID 463204);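 further: growth at restrictive 38.5 degrees C of Mot1-301 OY566 strain; actives raise luminescence by restoring growth of the ts mutant at high temperature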

SMILES | AC50
CCc1cc2c(=O)c(-c3ccc(F)cc3)c(C(F)(F)F)oc2cc1OCC(=O)O | > 42 µM (inactive)
N#CC(C#N)=CN=c1ccn(Cc2ccc(Cl)cc2Cl)cc1 | > 42 µM (inactive)
CCN(C(=O)CCS(=O)(=O)c1ccc2c(c1)oc(=O)n2C)c1ccc(OC)cc1 | > 42 µM (inactive)
CCCN1C(=O)c2ccc(C(=O)Nc3nccs3)cc2C1=O | > 42 µM (inactive)
COc1ccccc1CNC(=O)CN(c1ccc(C)cc1)S(=O)(=O)c1c(C)n[nH]c1C | > 110 µM (inactive)
Cc1nc(N2CCN(c3ccccn3)CC2)c2c(C)c(C(=O)N3CCN(c4ccccc4F)CC3)sc2n1 | > 42 µM (inactive)
Cc1ccc(N(C(C)C(=O)O)S(=O)(=O)c2c(C)n[nH]c2C)cc1 (stereo not given) | > 42 µM (inactive)
CCCOc1ccc(N2C(=O)CC(N3CCC(C(=O)OCC)CC3)C2=O)cc1 (stereo not given) | 13.1 µM
CCC(=O)Nc1nc(CC(=O)Nc2ccccc2OC)cs1 | > 42 µM (inactive)
CCn1nc(C(=O)OCc2cccc(S(=O)(=O)N(C)C)c2)c2ccccc2c1=O | > 42 µM (inactive)
COc1ccc(CN2CCCCCC2)cc1 | > 42 µM (inactive)
C/C(N)=C(/C#N)C(=O)CSc1nnc(-c2ccccc2)n1C | > 42 µM (inactive)
COc1ccc(C2C3=C(CC(C)(C)CC3=O)Nc3n[nH]c(C)c32)cc1 (stereo not given) | > 42 µM (inactive)
O=C(c1cc(N2C(=O)C3C4CCC(C4)C3C2=O)ccc1Cl)N1CCCCCC1 (stereo not given) | > 42 µM (inactive)
Cc1c(Cl)cccc1NC(=O)Cn1c(CCC(=O)O)ccc1-c1ccccc1 | > 42 µM (inactive)
N#Cc1cc2c(nc1SC1CCCCC1O)CCCC2 (stereo not given) | > 42 µM (inactive)
CCCCOc1ccc(C(=O)Nc2ccc(CN3CCOCC3)cc2)cc1 | > 42 µM (inactive)
CCOC(=O)C1C(c2ccc(C)o2)NC(=O)NC1(O)C(F)(F)F (stereo not given) | > 42 µM (inactive)
COc1ccc(S(=O)(=O)NC(C)C(=O)NCc2ccccn2)cc1Cl (stereo not given) | > 42 µM (inactive)
O=C(c1ccncc1)N(Cc1ccccc1)Cc1nc2ccccc2c(=O)[nH]1 | > 42 µM (inactive)
Nn1c(SCc2cc([N+](=O)[O-])cc3c2OCOC3)nnc1-c1ccccn1 | > 42 µM (inactive)
CCOC(=O)C1(c2ccccc2)CCN(CCC(=O)Nc2ccccc2OC)CC1 | > 42 µM (inactive)
O=C(NCCCN1CCOCC1)C1CCC(=O)N1CCc1ccccc1 (stereo not given) | > 42 µM (inactive)
O=C(Nc1cc(F)ccc1F)C1CCCO1 (stereo not given) | > 42 µM (inactive)
OCC1(Cc2cccc(Cl)c2)CCCN(Cc2ccc(F)c(F)c2)C1 (stereo not given) | > 42 µM (inactive)

SMILES | AC50
Oc1ccc(C2=CSC3=NCCN23)cc1O | > 42 µM (inactive)
O=C(/C=C/c1ccc(F)cc1)NCC1(c2ccccc2)CCOCC1 | > 42 µM (inactive)
Cc1ccc(NC(=O)CN2C(=O)COc3ccc(S(=O)(=O)N4CCOCC4)cc32)cc1F | > 42 µM (inactive)
CCn1nc(CC(=O)Nc2ccc(-n3cnnn3)c(C)c2)c2ccccc2c1=O | > 42 µM (inactive)
CCN1CCCC1CN(Cc1cc2ccc(C)cc2[nH]c1=O)C(=S)Nc1ccccc1C(=O)OC (stereo not given) | > 42 µM (inactive)
COC(=O)c1ccccc1NC(NC(=O)c1ccco1)C(=O)c1ccccc1 (stereo not given) | > 42 µM (inactive)
O=C(NCc1csc(-c2cccs2)n1)Nc1ccc(F)cc1F | > 42 µM (inactive)
COc1cccc(-n2c(SCC(=O)NC3CCCCC3)nc3n[nH]c(C)c3c2=N)c1 | > 42 µM (inactive)
CN(C)S(=O)(=O)N1CCc2ccccc2C1 | > 42 µM (inactive)
Cc1csc(=O)n1CC(=O)OCC(=O)Nc1cc([N+](=O)[O-])ccc1Cl | > 42 µM (inactive)
COc1ccc(N2C(=O)CSC2c2ccc([N+](=O)[O-])cc2)cc1 (stereo not given) | > 42 µM (inactive)
COC(=O)c1ccc(CSc2nc3ccccc3c(=O)n2CC(C)C)o1 | > 42 µM (inactive)
Cn1c(SCC(=O)Nc2ccc(N3CCOCC3)c(Cl)c2)nnc1-c1ccccc1 | > 42 µM (inactive)
CCCOc1ccccc1C1NC(=O)NC(C)=C1C(=O)OCc1ccccc1 (stereo not given) | > 42 µM (inactive)
O=C(C1CCC(CNc2c(N3CCCCC3)c(=O)c2=O)CC1)N1CCN(C2CCCCC2)CC1 (stereo not given) | > 42 µM (inactive)
CCOC(=O)NC1(Nc2ccc(C)cc2)Oc2ccccc2O1 | > 42 µM (inactive)
c1ccc(N2CCN(C3CCSC3)CC2)cc1 (stereo not given) | > 42 µM (inactive)
CCOC(=O)N1CCN(S(=O)(=O)c2ccc(Br)s2)CC1 | > 42 µM (inactive)
O=C(CP(=O)(c1ccccc1)c1ccccc1)N1CCOCC1 | > 42 µM (inactive)
O=C(NCc1ccccc1)c1cccc(COc2ccc(Cl)cc2)c1 | > 42 µM (inactive)
CCCCOc1ccc(C(=O)Nc2ccc(N3CCN(C)CC3)cc2)cc1 | > 42 µM (inactive)
COc1ccc(NC(=O)C(c2ccccc2)N2CCN(c3ccccn3)CC2)cc1Cl (stereo not given) | > 42 µM (inactive)
CCOC(=O)c1[nH]c2ccc(Br)cc2c1NC(=O)CCN1CCOCC1 | > 42 µM (inactive)
Clc1ccc(CNCc2cccs2)cc1Cl | > 42 µM (inactive)
CNC(=O)c1ccccc1S(=O)c1ccccc1COC(C)=O (stereo not given) | > 42 µM (inactive)

SMILES | AC50
COc1ccc(NC(=O)Nc2ccccc2C(=O)N2CCCC2)cc1 | > 42 µM (inactive)
COc1ccc(NC(=O)Cn2c(=O)cnc3ccccc32)cc1S(=O)(=O)N1CCCCC1 | > 42 µM (inactive)
Cc1nc(-c2ccc(Cl)cc2)sc1C1(C)CC(c2c(Cl)cccc2Cl)=NO1 (stereo not given) | > 42 µM (inactive)
CCOCCCNCc1ccc(OCc2ccc(F)cc2)c(OC)c1 | > 42 µM (inactive)
CC/C(=N\NC(=O)c1nnn(-c2nonc2N)c1-c1cccs1)c1ccccc1 | > 42 µM (inactive)
COc1ccccc1OCCCn1cc(C#N)c2ccccc21 | > 42 µM (inactive)
COC(=O)c1cccc(NC(=O)c2cccnc2)c1 | > 42 µM (inactive)
O=C1N=C(N2CCN(c3ccccc3)CC2)SC1Cc1ccccc1 (stereo not given) | > 42 µM (inactive)
COc1ccc(OCC(=O)O/N=C(\N)Cc2ccc(Cl)cc2)cc1 | > 42 µM (inactive)
COc1ccc(S(=O)(=O)Cc2ccc(C(=O)NCc3cccs3)o2)cc1 | > 42 µM (inactive)
COc1cc(NC(=O)CN2CCN(CC(=O)Nc3ccccc3OC)CC2)cc(OC)c1 | > 42 µM (inactive)
Cc1ccc(NC(=O)CN(C)C(=O)c2cccc(Br)c2)cc1 | > 42 µM (inactive)
CCCCc1ccc(S(=O)(=O)NNC(=S)NCc2ccco2)cc1 | > 42 µM (inactive)
COc1cc(/C=N/NC(=O)c2cccc([N+](=O)[O-])c2)ccc1O | > 42 µM (inactive)
CCN(CC)C(=O)CSC(Nc1cccc(F)c1)=C(C#N)C#N | > 42 µM (inactive)
Cc1ccc(S(=O)(=O)N2[C@@H](c3ccc(Br)cc3)C(C(=O)O)=C[C@H]2CC2CCCC2)cc1 | 3.51 µM
Cn1c(C(=O)NCCc2ccsc2)cc2c(=O)n(C)c3ccccc3c21 | > 42 µM (inactive)
CC(=O)Nc1cc2nn(-c3ccccc3)nc2cc1Cl | > 42 µM (inactive)
Cc1ccc(CC2CC(=O)N(c3ccc4c(c3)OCCO4)C2=O)cc1 (stereo not given) | > 42 µM (inactive)
Cc1ccc(S(=O)(=O)N2c3ccc(S(N)(=O)=O)cc3CC2C)cc1 (stereo not given) | > 42 µM (inactive)
CC1(C)Oc2ccc3ccc(=O)oc3c2/C(=C/Nc2ccc(O)cc2)C1=O | > 42 µM (inactive)
O=C(COC(=O)C1CC(=O)N(Cc2ccccc2)C1)Nc1ccccc1F (stereo not given) | > 21 µM (inactive)
COc1ccc(N2CCN(C(=O)CNC(=O)Cc3ccc(Cl)cc3)CC2)cc1 | > 42 µM (inactive)
CC(=O)Nc1ccc(S(=O)(=O)Nc2cccc(-c3ccc4nncn4n3)c2)cc1 | > 42 µM (inactive)
Cc1ccccc1C(=O)NNC(=S)Nc1cccc(C(F)(F)F)c1 | > 42 µM (inactive)

SMILES | AC50
O=C(CCn1cnnn1)Nc1ccc(Cl)cc1Cl | > 42 µM (inactive)
Cc1cccc(NS(=O)(=O)c2ccc3[nH]c(=O)cc(C(=O)O)c3c2)c1 | > 21 µM (inactive)
O=C(Nc1ccsc1C(=O)O)c1cccc(C(F)(F)F)c1 | > 42 µM (inactive)
COC(=O)c1ccc2[nH]c(C(C)(C)O)c(C)c2c1 | > 42 µM (inactive)
CCCN(CC1CC1)C(=O)COc1ccccc1C(=O)NCc1ccccc1 | > 42 µM (inactive)
O=Cc1ccccc1OCCN1CCCC1=O | > 42 µM (inactive)
CCN(CC)CCNc1ncnc2c1[nH]c1ccc(OC)cc12 | > 42 µM (inactive)
O=C(NCc1ccccn1)C1Nc2ccc(C(F)(F)F)cc2C2C=CCC12 (stereo not given) | > 42 µM (inactive)
CCCCCCOc1ccc(N2C(=O)CC(N3CCC(C(=O)OCC)CC3)C2=O)cc1 (stereo not given) | 4.96 µM
Cc1cc(C)nc(-n2nc(C)cc2NC(=O)CNCc2ccccc2)n1 | > 42 µM (inactive)
Cc1ccc(S(=O)(=O)Nc2n[nH]nc2C(=O)NC2CCCCC2)cc1 | > 42 µM (inactive)
Cc1ccc(NS(=O)(=O)c2cc(C(=O)Nc3cccc([N+](=O)[O-])c3)ccc2C)cc1 | > 42 µM (inactive)
COc1ccc(Nc2cc(NCCCO)c([N+](=O)[O-])c3nonc23)cc1 | > 42 µM (inactive)
COc1ccccc1N1CCN(C(=O)C2CCN(S(=O)(=O)c3ccc(C)cc3)CC2)CC1 | > 42 µM (inactive)
COC(=O)c1ccc(CN2CCN(C3CCCCC3)C(CCO)C2)cc1 (stereo not given) | > 42 µM (inactive)
OCCc1c[nH]c2cc(F)ccc12 | > 110 µM (inactive)
CCN1C(=S)N[C@@H](c2cccs2)C(C(=O)OC)=C1C | > 42 µM (inactive)
CCCSc1nc(=O)n2cccc(C)c2n1 | > 42 µM (inactive)
COc1cc(CN2CCN(c3ncccn3)CC2)cc(OC)c1 | > 42 µM (inactive)
CC1CCN(CCCCOc2ccc(Cl)cc2)CC1 | > 42 µM (inactive)
CCn1cc(CCCC(=O)NCc2ccccc2OC)c2ccccc21 | > 42 µM (inactive)
CNS(=O)(=O)c1cccc(C(=O)NCC2(N3CCCCC3)CCCCC2)c1 | 39.2 µM
COc1cc(-c2nnc(SCC#CCO)o2)cc(OC)c1OC | > 42 µM (inactive)
CCOc1ccc2nc(C(C)O)[nH]c2c1 (stereo not given) | > 42 µM (inactive)
S=C(Nc1ccc(Cl)cc1)N1CCN(Cc2ccccc2)CC1 | > 42 µM (inactive)
